Measurements taken from PubChem BioAssay (NCI).
“And” between values parts separate entries of the source, which are not always exact repeats. Equal entries are not always repeated.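 Method: 48-hour compound exposure of cells in 96-well plates, five concentrations, linear interpolation of endpoints. GI50: concentration for 50% inhibition of growth. TGI is the concentration that stops growth completely.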

Tests used:
Assay in all cases: DTP human tumour cell line panel, 48 h
UACC-257 melanoma = system: UACC-257 melanoma
OVCAR-3 ovarian = system: OVCAR-3 ovarian
786-0 renal = system: 786-0 renal
PC-3 prostate = system: PC-3 prostate
SNB-19 CNS = system: SNB-19 CNS
HCT-116 colon = system: HCT-116 colon
MCF7 breast = system: MCF7 breast
SNB-75 CNS = system: SNB-75 CNS
SK-MEL-5 melanoma = system: SK-MEL-5 melanoma
HT29 colon = system: HT29 colon

COc1ccc(/C=C/c2ccnc3ccccc23)c(OC)c1
TGI (UACC-257 melanoma): > 10 µM
TGI (OVCAR-3 ovarian): > 10 µM
TGI (786-0 renal): > 10 µM
TGI (PC-3 prostate): > 10 µM
TGI (SNB-19 CNS): > 10 µM
TGI (HCT-116 colon): > 10 µM
TGI (MCF7 breast): > 10 µM
TGI (SNB-75 CNS): > 10 µM
TGI (SK-MEL-5 melanoma): > 10 µM

COc1cc(-c2ccc3c(c2)NC(=O)/C3=C\c2ccc[nH]2)ccc1O
GI50 (OVCAR-3 ovarian): 0.0176 µM
TGI (OVCAR-3 ovarian): > 50 µM
GI50 (786-0 renal): 0.0385 µM
TGI (786-0 renal): > 21.1 µM
GI50 (PC-3 prostate): 0.0228 µM
TGI (PC-3 prostate): > 50 µM
GI50 (SNB-19 CNS): 0.0277 µM
TGI (SNB-19 CNS): > 50 µM
GI50 (HCT-116 colon): 0.0228 µM
TGI (HCT-116 colon): > 50 µM
GI50 (MCF7 breast): 0.0888 µM
TGI (MCF7 breast): > 50 µM
GI50 (SNB-75 CNS): 0.0201 µM
TGI (SNB-75 CNS): > 50 µM
GI50 (HT29 colon): 1.05 µM
TGI (HT29 colon): > 50 µM
GI50 (SK-MEL-5 melanoma): 0.0368 µM
TGI (SK-MEL-5 melanoma): 1.69 µM

Clc1ccc(C2=Nn3c(COc4ccccc4Cl)nnc3SC2)c(Cl)c1
GI50 (UACC-257 melanoma): 20.8 µM
TGI (UACC-257 melanoma): 60.9 µM
GI50 (OVCAR-3 ovarian): 12.9 µM
TGI (OVCAR-3 ovarian): 29.2 µM
GI50 (786-0 renal): 25.6 µM
TGI (786-0 renal): 65.4 µM
GI50 (PC-3 prostate): 37.2 µM
TGI (PC-3 prostate): > 100 µM
GI50 (SNB-19 CNS): 30.4 µM
TGI (SNB-19 CNS): > 100 µM
GI50 (HCT-116 colon): 14.7 µM
TGI (HCT-116 colon): 27.9 µM
GI50 (MCF7 breast): 11 µM
TGI (MCF7 breast): > 100 µM
GI50 (HT29 colon): 14 µM
TGI (HT29 colon): 27 µM
GI50 (SK-MEL-5 melanoma): 12.6 µM
TGI (SK-MEL-5 melanoma): 28.5 µM

COc1cc2c(cc1OC)C(CC(=O)NN=C(C)C)NCC2 (centres undefined)
TGI (UACC-257 melanoma): > 100 µM
TGI (OVCAR-3 ovarian): > 100 µM
TGI (786-0 renal): > 100 µM
TGI (SNB-19 CNS): > 100 µM
TGI (HCT-116 colon): > 100 µM
TGI (SNB-75 CNS): > 100 µM
TGI (HT29 colon): > 100 µM
TGI (SK-MEL-5 melanoma): > 100 µM

CC(=O)[O-].CCN(CC)c1ccc(C=NCCN=Cc2ccc(N(CC)CC)cc2[O-])c([O-])c1.[Mn+3]
GI50 (UACC-257 melanoma): 23 µM
TGI (UACC-257 melanoma): 55.5 µM
GI50 (OVCAR-3 ovarian): 21 µM
TGI (OVCAR-3 ovarian): 44.1 µM
GI50 (786-0 renal): 38.7 µM
TGI (786-0 renal): > 100 µM
GI50 (SNB-19 CNS): 19.9 µM
TGI (SNB-19 CNS): 42.8 µM
GI50 (HCT-116 colon): 18.5 µM
TGI (HCT-116 colon): 33.3 µM
GI50 (SNB-75 CNS): 22.1 µM
TGI (SNB-75 CNS): 58.2 µM
GI50 (HT29 colon): 19.9 µM
TGI (HT29 colon): 40.1 µM
GI50 (SK-MEL-5 melanoma): 19 µM
TGI (SK-MEL-5 melanoma): 33.9 µM

Cc1cc(C(=O)Nc2ncc(Cc3cccc(C(F)(F)F)c3)s2)c2ccccc2n1
GI50 (UACC-257 melanoma): 1.75 µM
TGI (UACC-257 melanoma): > 100 µM
GI50 (OVCAR-3 ovarian): 2.63 µM
TGI (OVCAR-3 ovarian): > 100 µM
GI50 (786-0 renal): 2.84 µM
TGI (786-0 renal): > 100 µM
GI50 (PC-3 prostate): 2.31 µM
TGI (PC-3 prostate): > 100 µM
GI50 (SNB-19 CNS): 3.02 µM
TGI (SNB-19 CNS): > 100 µM
GI50 (HCT-116 colon): 1.29 µM
TGI (HCT-116 colon): > 100 µM
GI50 (MCF7 breast): 0.579 µM
TGI (MCF7 breast): > 100 µM
GI50 (HT29 colon): 1.14 µM
TGI (HT29 colon): > 100 µM
GI50 (SK-MEL-5 melanoma): 1.03 µM
TGI (SK-MEL-5 melanoma): > 100 µM

O=C1OC(c2ccccc2)=N/C1=C\c1cccc2ccccc12
TGI (UACC-257 melanoma): > 100 µM
TGI (OVCAR-3 ovarian): > 100 µM
TGI (786-0 renal): > 100 µM
TGI (SNB-19 CNS): > 100 µM
TGI (HCT-116 colon): > 100 µM
TGI (SNB-75 CNS): > 100 µM
TGI (HT29 colon): > 100 µM
TGI (SK-MEL-5 melanoma): > 100 µM

Cc1cccc(N2CCN(C(=S)c3ccc4c(c3)OCO4)CC2)c1
GI50 (UACC-257 melanoma): > 100 µM
TGI (UACC-257 melanoma): > 100 µM
GI50 (OVCAR-3 ovarian): 0.359 µM
TGI (OVCAR-3 ovarian): 2.87 µM
GI50 (786-0 renal): 7.97 µM
TGI (786-0 renal): > 100 µM
GI50 (PC-3 prostate): 4.14 µM
TGI (PC-3 prostate): > 100 µM
GI50 (SNB-19 CNS): 1.64 µM
TGI (SNB-19 CNS): > 100 µM
GI50 (HCT-116 colon): 0.513 µM
TGI (HCT-116 colon): > 100 µM
GI50 (MCF7 breast): 0.571 µM
TGI (MCF7 breast): > 100 µM
GI50 (SNB-75 CNS): 0.8 µM
TGI (SNB-75 CNS): 6.85 µM
GI50 (SK-MEL-5 melanoma): 0.437 µM
TGI (SK-MEL-5 melanoma): 35.1 µM

N#CCN1C(=O)c2cccc3cc([N+](=O)[O-])cc(c23)C1=O
TGI (UACC-257 melanoma): 83.1 µM
TGI (OVCAR-3 ovarian): 88.6 µM
TGI (786-0 renal): > 100 µM
TGI (SNB-19 CNS): > 100 µM
TGI (HCT-116 colon): > 100 µM
TGI (SNB-75 CNS): > 100 µM
TGI (HT29 colon): > 100 µM
TGI (SK-MEL-5 melanoma): > 100 µM

Clc1nc(Cl)c(Cl)c(-c2ccccc2)n1
TGI (UACC-257 melanoma): 44.2 µM
TGI (OVCAR-3 ovarian): 5.38 µM
TGI (786-0 renal): 7.45 µM
TGI (PC-3 prostate): 39.3 µM
TGI (SNB-19 CNS): 33.3 µM
TGI (MCF7 breast): 48.7 µM
TGI (SNB-75 CNS): 21.5 µM
TGI (SK-MEL-5 melanoma): 11.8 µM

CC(C)(C)c1ccc2c(c1)S(=O)(=O)Nc1ccccc1NS(=O)(=O)c1cc(C(C)(C)C)ccc1OCCOCCOCCO2
TGI (UACC-257 melanoma): > 100 µM
TGI (OVCAR-3 ovarian): > 100 µM
TGI (786-0 renal): > 100 µM
TGI (SNB-19 CNS): > 100 µM
TGI (HCT-116 colon): > 100 µM
TGI (SNB-75 CNS): > 100 µM
TGI (HT29 colon): > 100 µM
TGI (SK-MEL-5 melanoma): > 100 µM

CC1CC[C@]2(C(=O)O)CCC3(C)C(=CC(=O)C4[C@@]5(C)CCC(=O)C(C)(C)C5CC[C@]43C)[C@@H]2[C@H]1C (some centres undefined)
TGI (UACC-257 melanoma): 96.9 µM
TGI (OVCAR-3 ovarian): 44 µM
TGI (786-0 renal): > 100 µM
TGI (SNB-19 CNS): > 100 µM
TGI (HCT-116 colon): 43 µM
TGI (SNB-75 CNS): > 100 µM
TGI (HT29 colon): > 100 µM
TGI (SK-MEL-5 melanoma): > 100 µM

COc1ccccc1CCc1cc(OC)c(OC)c(OC)c1
TGI (UACC-257 melanoma): > 100 µM
TGI (OVCAR-3 ovarian): > 100 µM
TGI (786-0 renal): > 100 µM
TGI (SNB-19 CNS): > 100 µM
TGI (HCT-116 colon): > 100 µM
TGI (SNB-75 CNS): > 100 µM
TGI (HT29 colon): > 100 µM
TGI (SK-MEL-5 melanoma): 42.7 µM

COc1cc2nc3cc([N+](=O)[O-])ccc3c(NCCCNCCO)c2cc1OC
GI50 (UACC-257 melanoma): 0.342 µM
TGI (UACC-257 melanoma): 0.951 µM
GI50 (OVCAR-3 ovarian): 0.244 µM
TGI (OVCAR-3 ovarian): 0.622 µM
GI50 (786-0 renal): 0.239 µM
TGI (786-0 renal): 0.896 µM
GI50 (PC-3 prostate): 0.213 µM
TGI (PC-3 prostate): 0.483 µM
GI50 (SNB-19 CNS): 0.137 µM
TGI (SNB-19 CNS): 0.495 µM
GI50 (HCT-116 colon): 0.115 µM
TGI (HCT-116 colon): 0.385 µM
GI50 (MCF7 breast): 0.12 µM
TGI (MCF7 breast): 0.626 µM
GI50 (SNB-75 CNS): 0.128 µM
TGI (SNB-75 CNS): 0.26 µM
GI50 (HT29 colon): 0.212 µM
TGI (HT29 colon): 0.569 µM

COC1(OC)C2(Cl)C(Cl)=C(Cl)C1(Cl)C1C=CC=CC12 (centres undefined)
TGI (UACC-257 melanoma): > 100 µM
TGI (OVCAR-3 ovarian): > 100 µM
TGI (786-0 renal): > 100 µM
TGI (SNB-19 CNS): > 100 µM
TGI (HCT-116 colon): > 100 µM
TGI (SNB-75 CNS): > 100 µM
TGI (HT29 colon): > 100 µM
TGI (SK-MEL-5 melanoma): > 100 µM

COc1cccc2c1C(=O)c1c(O)c3c(c(O)c1C2=O)C[C@@](O)(C(C)=O)C[C@@H]3OC1OC(C)C(O)C(N)C1Br (some centres undefined)
GI50 (UACC-257 melanoma): 0.123 µM
TGI (UACC-257 melanoma): 0.487 µM and 1.14 µM
GI50 (OVCAR-3 ovarian): 0.178 µM
TGI (OVCAR-3 ovarian): 0.364 µM and 0.584 µM
GI50 (786-0 renal): 0.0178 µM
TGI (786-0 renal): 0.62 µM and 0.168 µM
TGI (PC-3 prostate): 1.03 µM
GI50 (SNB-19 CNS): 0.025 µM
TGI (HCT-116 colon): 0.147 µM and 0.188 µM
GI50 (SNB-75 CNS): 0.151 µM
TGI (HT29 colon): 0.573 µM
GI50 (SK-MEL-5 melanoma): 0.0166 µM
TGI (SK-MEL-5 melanoma): 0.223 µM and 0.139 µM

COc1ccc(C(=O)C(C(=O)CCC(=O)Nc2cccc(Cl)c2)c2ccc(OC)cc2)cc1 (centres undefined)
TGI (UACC-257 melanoma): > 100 µM
TGI (OVCAR-3 ovarian): > 100 µM
TGI (786-0 renal): > 100 µM
TGI (SNB-19 CNS): > 100 µM
TGI (HCT-116 colon): > 100 µM
TGI (SNB-75 CNS): > 100 µM
TGI (HT29 colon): > 100 µM
TGI (SK-MEL-5 melanoma): > 100 µM

CC1(C)C(=O)N(CCCCCCN2C(=O)C(C)(C)c3ccccc32)c2ccccc21
TGI (UACC-257 melanoma): 52 µM
TGI (OVCAR-3 ovarian): 77.8 µM
TGI (786-0 renal): 40.8 µM
TGI (SNB-19 CNS): > 100 µM
TGI (HCT-116 colon): 42.4 µM
TGI (SNB-75 CNS): > 100 µM
TGI (HT29 colon): 43.5 µM
TGI (SK-MEL-5 melanoma): 33.5 µM

CCOC(=O)c1c(C)n(Cc2ccc(Cl)cc2Cl)c2c1c(CN(C)C)c(O)c1[nH]cnc12
GI50 (UACC-257 melanoma): 20.5 µM
TGI (UACC-257 melanoma): 39.5 µM
GI50 (OVCAR-3 ovarian): 17.3 µM
TGI (OVCAR-3 ovarian): 33.5 µM
GI50 (786-0 renal): 20.1 µM
TGI (786-0 renal): 41.4 µM
GI50 (SNB-19 CNS): 18.4 µM
TGI (SNB-19 CNS): 32.3 µM
GI50 (HCT-116 colon): 19 µM
TGI (HCT-116 colon): 33 µM
GI50 (SNB-75 CNS): 3.55 µM
TGI (SNB-75 CNS): 17 µM
GI50 (HT29 colon): 18 µM
TGI (HT29 colon): 31.8 µM
GI50 (SK-MEL-5 melanoma): 17.2 µM
TGI (SK-MEL-5 melanoma): 30.9 µM
